Experimental data published in paper PMC8811955 (Biochemistry, 2022).

Test system: ySB267 (OSR4p-SEC4, Ca.Ste2)
Assay: Peptide concentration-dependent growth of ySB267
Format: cell-based, Saccharomyces cerevisiae
Conditions: ySB267, tested concentrations, 20 h

GFRLTNFGYFEPG [Ca peptide]
Peptide concentration above which maximum growth rate was reached: > 2.5 nM
